Experimental data reported in patent US8722578B2, “Spiroheterocyclic pyrrolidinedione herbicidal compositions” (Syngenta Participations AG, priority 2008, dated 2014).

| melting point | SMILES |
| --- | --- |
| 133 to 136 °C | CCCOC(=O)OC1=C(c2cc(C)ccc2C)C(=O)NC12CCN(OC)CC2 [Compound P2] |
| 187 to 189 °C | COc1ccc(OC)c(C2=C(OC(=O)N(C)CCC#N)C3(CCN(OC)CC3)NC2=O)c1 [Compound P42] |
| 244 to 245 °C | CCON1CCC2(CC1)NC(=O)C(c1ccc(Cl)cc1Cl)C2=O (stereo not drawn) [Compound T6] |
| 233 to 236 °C | CON1CCC2(CC1)NC(=O)C(c1cc(C)ccc1C)=C2OC(C)=O [Compound P19] |
| 161 to 164 °C | COCCOC1=C(c2cc(C)ccc2C)C(=O)NC12CCN(OC)CC2 [Compound P73] |
| 196 to 197 °C | CON1CCC2(CC1)NC(=O)C(c1cc(C)ccc1C)=C2OC(=O)OCC(C)(C)C [Compound P7] |
| 157 to 158 °C | C=CCOC(=O)OC1=C(c2cc(Br)ccc2C)C(=O)NC12CCN(OC)CC2 [Compound P45] |
| 215 to 216 °C | CCOC(=O)OC1=C(c2c(C)cc(C3CC3)cc2C)C(=O)NC12CCN(OC)CC2 [Compound P50] |
| 101 to 104 °C | CON1CCC2(CC1)NC(=O)C(c1cc(-c3ccc(F)cc3)c(F)cc1C)=C2OC(=O)C(C)(C)C [Compound P72] |
| 166 to 167 °C | CCON1CCC2(CC1)NC(=O)C(c1cc(C)ccc1C)C2=O (stereo not drawn) [Compound T7] |
| 206 to 209 °C | CCOC(=O)OC1=C(c2cc(Br)c(C)cc2C)C(=O)NC12CCN(OC)CC2 [Compound P51] |
| 104 to 106 °C | CON1CCC2(CC1)NC(=O)C(c1cc(C)ccc1C)=C2OCC#N [Compound P35] |
| > 250 °C | CON1CCC2(CC1)NC(=O)C(c1c(C)cc(C3CC3)cc1C)C2=O (stereo not drawn) [Compound T13] |
| 158 to 159 °C | CON1CCC2(CC1)NC(=O)C(c1cc(C)ccc1C)=C2OC(=O)C(C)(C)C [Compound P9] |
| 197 to 200 °C | CON1CCC2(CC1)NC(=O)C(c1cc(Br)ccc1C)=C2OC(=O)N(C)CCC#N [Compound P28] |
| 162 to 164 °C | C=COC(=O)OC1=C(c2cc(C)ccc2C)C(=O)NC12CCN(OC)CC2 [Compound P6] |
| 225 to 226 °C | CON1CCC2(CC1)NC(=O)C(c1cc(Br)c(C)cc1C)=C2OC(=O)C(C)(C)C [Compound P52] |
| 194 to 196 °C | COc1ccc(OC)c(C2C(=O)NC3(CCN(OC)CC3)C2=O)c1 (stereo not drawn) [Compound T11] |
| 165 to 166 °C | CCON1CCC2(CC1)NC(=O)C(c1ccc(Cl)cc1Cl)=C2OC(=O)C(C)(C)C [Compound P26] |
| 190 to 192 °C | CCOC(=O)OC1=C(c2ccc(C3CC3)cc2Cl)C(=O)NC12CCN(OC)CC2 [Compound P58] |
| 183 to 184 °C | CCOC(=O)OC1=C(c2ccc(Cl)cc2Cl)C(=O)NC12CCN(OCC)CC2 [Compound P23] |
| 156 to 157 °C | C=CCOC(=O)OC1=C(c2cc(OC)ccc2OC)C(=O)NC12CCN(OC)CC2 [Compound P47] |
| 168 to 170 °C | CON1CCC2(CC1)NC(=O)C(c1cc(C)ccc1C)=C2OS(=O)(=O)C(C)C [Compound P13] |
| 239 to 242 °C | CON1CCC2(CC1)NC(=O)C(c1c(Cl)cccc1Cl)=C2OC(=O)N(C)CCC#N [Compound P33] |
| 184 to 185 °C | C#CCOC1=C(c2cc(C)ccc2C)C(=O)NC12CCN(OC)CC2 [Compound P38] |
| 169 to 170 °C | CCON1CCC2(CC1)NC(=O)C(c1cc(C)ccc1C)=C2OC(=O)C(C)(C)C [Compound P24] |
| 193 to 195 °C | CCOC(=O)OC1=C(c2ccc(C3CC3)cc2C)C(=O)NC12CCN(OC)CC2 [Compound P60] |

| melting point | SMILES |
| --- | --- |
| 203 to 205 °C | COC1=C(c2cc(C)ccc2C)C(=O)NC12CCN(OC)CC2 [Compound P11] |
| 151 to 153 °C | C#CCOC(=O)OC1=C(c2cc(C)ccc2C)C(=O)NC12CCN(OC)CC2 [Compound P8] |
| 167 to 168 °C | CCOC(=O)OC1=C(c2cc(C)ccc2C)C(=O)NC12CCN(OCC)CC2 [Compound P21] |
| 192 to 193 °C | CCOC(=O)OC1=C(c2cc(OC)ccc2OC)C(=O)NC12CCN(OC)CC2 [Compound P31] |
| > 200 °C | CON1CCC2(CC1)NC(=O)C(c1c(C)cc(C3CC3)cc1C)=C2OC(=O)C(C)(C)C [Compound P57] |
| 194 to 196 °C | CON1CCC2(CC1)NC(=O)C(c1cc(Br)ccc1C)C2=O (stereo not drawn) [Compound T8] |
| 206 to 207 °C | CON1CCC2(CC1)NC(=O)C(c1ccc(C3CC3)cc1Cl)C2=O (stereo not drawn) [Compound T17] |
| 173 to 174 °C | C=CCOC1=C(c2cc(C)ccc2C)C(=O)NC12CCN(OC)CC2 [Compound P37] |
| 56 to 59 °C | CON1CCC2(CC1)NC(=O)C(c1ccc(Cl)c(Cl)c1)=C2OC(=O)N(C)CCC#N [Compound P41] |
| 229 to 230 °C | CON1CCC2(CC1)NC(=O)C(c1cc(Br)c(F)cc1C)=C2O [Compound T19, 3-(5-bromo-4-fluoro-2-methyl-phenyl)-4-hydroxy-8-methoxy-1,8-diaza-spiro[4.5]dec-3-en-2-one] |
| 229 to 230 °C | CON1CCC2(CC1)NC(=O)C(c1cc(-c3ccc(Cl)cc3)c(C)cc1C)=C2OC(=O)C(C)(C)C [Compound P54] |
| 216 to 217 °C | CON1CCC2(CC1)NC(=O)C(c1cc(Br)c(F)cc1C)=C2OC(=O)C(C)(C)C [Compound P63] |
| 210 to 213 °C | C=CCOC(=O)OC1=C(c2ccc(Cl)c(Cl)c2)C(=O)NC12CCN(OC)CC2 [Compound P46] |
| 207 to 209 °C | CON1CCC2(CC1)NC(=O)C(c1cc(C)ccc1C)=C2OC(=O)OC(C)C [Compound P3] |
| 195 to 197 °C | CON1CCC2(CC1)NC(=O)C(c1ccc(C3CC3)cc1Cl)=C2OC(=O)C(C)(C)C [Compound P59] |
| > 200 °C | CON1CCC2(CC1)NC(=O)C(c1c(C)cc(C)c(Cl)c1C)C2=O (stereo not drawn) [Compound T20] |
| 191 to 194 °C | CON1CCC2(CC1)NC(=O)C(c1ccc(C3CC3)cc1C)C2=O (stereo not drawn) [Compound T18] |
| 222 to 224 °C | CCOC(=O)OC1=C(c2ccc(Cl)c(Cl)c2)C(=O)NC12CCN(OC)CC2 [Compound P30] |
| 140 to 142 °C | C=CCOC(=O)OC1=C(c2cc(C)ccc2C)C(=O)NC12CCN(OC)CC2 [Compound P4] |
| 229 to 232 °C | CCOC(=O)OC1=C(c2c(Cl)cccc2Cl)C(=O)NC12CCN(OC)CC2 [Compound P17] |
| 202 to 204 °C | CCC(=O)OC1=C(c2cc(C)ccc2C)C(=O)NC12CCN(OC)CC2 [Compound P20] |
| 220 to 224 °C | CON1CCC2(CC1)NC(=O)C(c1c(C)cc(C)cc1C)=C2OC(=O)N(C)CCC#N [Compound P40] |
| 244 to 245 °C | CON1CCC2(CC1)NC(=O)C(c1ccc(C3CC3)cc1C)=C2OC(=O)C(C)(C)C [Compound P61] |
| 183 to 185 °C | COCOC1=C(c2cc(C)ccc2C)C(=O)NC12CCN(OC)CC2 [Compound P12] |
| 205 to 209 °C | CCOC(=O)OC1=C(c2cc(Br)ccc2C)C(=O)NC12CCN(OC)CC2 [Compound P27] |
| 239 to 242 °C | CON1CCC2(CC1)NC(=O)C(c1ccc(Cl)c(Cl)c1)C2=O (stereo not drawn) [Compound T10] |
| 170 to 173 °C | CCOC(=O)OC1=C(c2cc(C)ccc2C)C(=O)NC12CCN(OC)CC2 [Compound P1] |
